Five compounds from ChEMBL document CHEMBL5465560, “Selectivity Literature for EUbOPEN Chemogenomic Library” (2024) can be followed below.

Experiment [1] has as its target Tyrosine-protein kinase Fer (Homo sapiens) (UniProt P16591). The experiment can be described thus: Selectivity interaction (Ambit KINOMEscan and KiNATiv profiling in Jurkat cells) EUB0000090b FER. The format is cell-based. The conditions noted are these: at 1 µM.
For experiment [2], the target named is T1, Serine/threonine-protein kinase Sgk1 (Homo sapiens) (UniProt O00141).
T1 sequence (whole entry): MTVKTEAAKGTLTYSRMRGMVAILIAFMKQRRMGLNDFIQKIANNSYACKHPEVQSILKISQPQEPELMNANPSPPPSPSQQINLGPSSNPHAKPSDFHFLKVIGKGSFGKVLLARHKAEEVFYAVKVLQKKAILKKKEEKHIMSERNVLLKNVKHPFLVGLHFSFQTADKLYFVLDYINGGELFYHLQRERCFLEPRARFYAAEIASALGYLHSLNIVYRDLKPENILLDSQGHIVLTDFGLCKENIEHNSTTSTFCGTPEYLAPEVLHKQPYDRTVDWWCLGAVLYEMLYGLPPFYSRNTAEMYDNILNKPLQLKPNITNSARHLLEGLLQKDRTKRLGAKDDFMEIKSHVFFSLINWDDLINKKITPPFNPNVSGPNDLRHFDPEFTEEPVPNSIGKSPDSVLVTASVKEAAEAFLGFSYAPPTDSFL
The experiment can be described thus: Selectivity interaction (Ambit KINOMEscan and KiNATiv profiling in Jurkat cells) EUB0000090b SGK1. The format is cell-based. The conditions noted are these: at 1 µM.

The target of experiment [3] is Mitogen-activated protein kinase kinase kinase kinase 4 (Homo sapiens, UniProt O95819). The experiment can be described thus: Selectivity interaction (KinomeScan (DiscoverX)) EUB0000607a MAP4K4. The conditions noted are these: at 10 µM.
Chain of Mitogen-activated protein kinase kinase kinase kinase 4 (O95819 2-1239 limits assumed): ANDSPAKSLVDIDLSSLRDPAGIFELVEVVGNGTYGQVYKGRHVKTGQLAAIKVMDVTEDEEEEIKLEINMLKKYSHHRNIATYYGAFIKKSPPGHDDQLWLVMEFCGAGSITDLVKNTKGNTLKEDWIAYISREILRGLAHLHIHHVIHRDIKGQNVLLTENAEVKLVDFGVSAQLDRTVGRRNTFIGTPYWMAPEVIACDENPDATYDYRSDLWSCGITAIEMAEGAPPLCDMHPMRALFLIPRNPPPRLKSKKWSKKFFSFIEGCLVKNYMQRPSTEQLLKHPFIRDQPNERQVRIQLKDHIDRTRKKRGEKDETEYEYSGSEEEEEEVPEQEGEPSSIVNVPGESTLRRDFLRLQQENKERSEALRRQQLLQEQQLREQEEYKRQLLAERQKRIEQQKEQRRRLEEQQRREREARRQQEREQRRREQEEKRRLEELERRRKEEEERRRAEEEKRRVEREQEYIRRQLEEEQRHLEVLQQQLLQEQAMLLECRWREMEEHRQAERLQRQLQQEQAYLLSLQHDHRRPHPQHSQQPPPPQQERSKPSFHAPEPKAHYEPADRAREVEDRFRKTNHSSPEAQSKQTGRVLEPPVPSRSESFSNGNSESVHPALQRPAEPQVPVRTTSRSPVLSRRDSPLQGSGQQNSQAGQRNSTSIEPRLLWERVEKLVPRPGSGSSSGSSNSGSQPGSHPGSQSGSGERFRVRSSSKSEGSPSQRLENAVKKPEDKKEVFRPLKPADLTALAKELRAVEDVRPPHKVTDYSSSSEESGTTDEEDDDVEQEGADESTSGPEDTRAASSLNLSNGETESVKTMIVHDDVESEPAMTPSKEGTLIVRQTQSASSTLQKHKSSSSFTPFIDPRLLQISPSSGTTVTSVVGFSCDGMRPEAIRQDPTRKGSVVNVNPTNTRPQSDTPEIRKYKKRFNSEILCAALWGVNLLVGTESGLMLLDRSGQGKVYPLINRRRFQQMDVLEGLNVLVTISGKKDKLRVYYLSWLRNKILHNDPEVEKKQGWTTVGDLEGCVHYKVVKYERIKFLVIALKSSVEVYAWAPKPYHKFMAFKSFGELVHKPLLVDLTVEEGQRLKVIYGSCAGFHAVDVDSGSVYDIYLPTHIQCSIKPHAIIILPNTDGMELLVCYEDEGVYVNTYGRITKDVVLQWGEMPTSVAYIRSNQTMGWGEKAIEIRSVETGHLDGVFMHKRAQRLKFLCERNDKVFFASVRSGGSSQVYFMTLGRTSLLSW
The target of experiment [4] is Tyrosine-protein kinase Yes (Homo sapiens) (UniProt P07947). Description: Selectivity interaction (ActivX KiNativ screen (ex vivo kinase selectivity in human PBMCs)) EUB0001619a YES1. The format is cell-based. The conditions noted are these: PBMC, at 1 µM.
Chain of Tyrosine-protein kinase Yes (Homo sapiens) (P07947 2-543 limits assumed): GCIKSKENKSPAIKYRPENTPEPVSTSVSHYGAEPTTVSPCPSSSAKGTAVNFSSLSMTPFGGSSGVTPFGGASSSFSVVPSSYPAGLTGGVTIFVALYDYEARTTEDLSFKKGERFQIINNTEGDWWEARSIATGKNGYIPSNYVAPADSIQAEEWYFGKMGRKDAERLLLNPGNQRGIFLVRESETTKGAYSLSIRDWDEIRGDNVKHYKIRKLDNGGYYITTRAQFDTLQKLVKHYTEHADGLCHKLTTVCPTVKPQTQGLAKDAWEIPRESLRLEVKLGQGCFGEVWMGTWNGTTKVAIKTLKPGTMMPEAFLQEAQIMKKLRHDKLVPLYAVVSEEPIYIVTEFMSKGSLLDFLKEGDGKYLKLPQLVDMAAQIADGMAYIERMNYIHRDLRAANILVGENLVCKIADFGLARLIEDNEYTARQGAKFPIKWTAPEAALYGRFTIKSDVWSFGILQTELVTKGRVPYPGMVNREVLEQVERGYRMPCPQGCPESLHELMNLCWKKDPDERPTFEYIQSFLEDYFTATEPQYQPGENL
In experiment [5] the target is Cyclin-dependent kinase 1/cyclin B (Homo sapiens) (UniProt P06493+P14635+Q8WWL7+O95067). The experiment can be described thus: Selectivity interaction (Kinase panel (Invitrogen)) EUB0000639a CDK1. The conditions noted are these: at 200 nM. The format is protein-complex assay.
Experiment [6] has as its target T2, Serine/threonine-protein kinase TBK1 (Homo sapiens) (UniProt Q9UHD2).
T2 sequence (whole entry): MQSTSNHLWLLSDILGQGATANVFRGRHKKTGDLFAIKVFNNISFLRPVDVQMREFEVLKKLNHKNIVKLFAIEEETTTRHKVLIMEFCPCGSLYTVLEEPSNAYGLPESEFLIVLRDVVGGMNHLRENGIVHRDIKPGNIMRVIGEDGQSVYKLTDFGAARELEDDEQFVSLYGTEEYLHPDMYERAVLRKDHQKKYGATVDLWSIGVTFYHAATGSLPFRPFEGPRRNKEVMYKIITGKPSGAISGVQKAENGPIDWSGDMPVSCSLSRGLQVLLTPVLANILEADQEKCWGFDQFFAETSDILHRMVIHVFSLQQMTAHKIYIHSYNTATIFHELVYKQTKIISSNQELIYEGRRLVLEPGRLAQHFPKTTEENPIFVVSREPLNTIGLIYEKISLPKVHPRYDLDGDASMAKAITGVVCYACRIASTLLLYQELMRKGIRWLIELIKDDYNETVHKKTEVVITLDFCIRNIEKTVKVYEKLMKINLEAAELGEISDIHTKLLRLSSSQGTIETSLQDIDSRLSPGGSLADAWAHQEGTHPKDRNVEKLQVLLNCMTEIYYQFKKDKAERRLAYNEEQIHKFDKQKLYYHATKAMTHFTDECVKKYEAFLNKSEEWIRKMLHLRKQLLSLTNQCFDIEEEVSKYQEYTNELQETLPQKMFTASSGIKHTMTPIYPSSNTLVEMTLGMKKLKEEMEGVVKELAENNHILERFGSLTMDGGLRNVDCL
The experiment can be described thus: Selectivity interaction (ActivX KiNativ screen (kinase selectivity in THP-1 cell lysates)) EUB0000639a TBK1. Conditions: lysate, at 0.04 µM. It counts as subcellular.

Experiment [7] concerns the target T3, Serine/threonine-protein kinase Nek3 (Homo sapiens) (UniProt P51956).
T3 sequence (whole entry): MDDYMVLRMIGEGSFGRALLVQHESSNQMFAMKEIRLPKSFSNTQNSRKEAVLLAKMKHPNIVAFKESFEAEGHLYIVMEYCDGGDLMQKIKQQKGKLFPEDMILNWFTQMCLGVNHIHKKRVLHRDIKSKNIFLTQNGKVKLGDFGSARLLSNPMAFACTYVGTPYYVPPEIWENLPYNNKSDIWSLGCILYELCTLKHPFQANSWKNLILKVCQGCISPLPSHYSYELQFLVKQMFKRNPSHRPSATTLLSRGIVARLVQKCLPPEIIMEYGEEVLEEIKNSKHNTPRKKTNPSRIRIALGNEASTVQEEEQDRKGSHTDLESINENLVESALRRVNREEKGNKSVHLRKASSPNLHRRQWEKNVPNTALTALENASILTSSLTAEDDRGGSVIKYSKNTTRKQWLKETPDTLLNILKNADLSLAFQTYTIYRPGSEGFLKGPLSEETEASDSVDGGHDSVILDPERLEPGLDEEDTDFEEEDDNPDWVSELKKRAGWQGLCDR
The experiment can be described thus: Selectivity interaction (KinomeScan (DiscoverX)) EUB0000618a NEK3. The conditions noted are these: at 10 µM.

Experiment [8] addresses Calcium/calmodulin-dependent protein kinase type 1 (Homo sapiens) (UniProt Q14012). The experiment can be described thus: Selectivity interaction (KinomeScan (DiscoverX)) EUB0000618a CAMK1. Conditions: at 10 µM.

Chain of Calcium/calmodulin-dependent protein kinase type 1 (Homo sapiens) (Q14012 whole entry, looked up): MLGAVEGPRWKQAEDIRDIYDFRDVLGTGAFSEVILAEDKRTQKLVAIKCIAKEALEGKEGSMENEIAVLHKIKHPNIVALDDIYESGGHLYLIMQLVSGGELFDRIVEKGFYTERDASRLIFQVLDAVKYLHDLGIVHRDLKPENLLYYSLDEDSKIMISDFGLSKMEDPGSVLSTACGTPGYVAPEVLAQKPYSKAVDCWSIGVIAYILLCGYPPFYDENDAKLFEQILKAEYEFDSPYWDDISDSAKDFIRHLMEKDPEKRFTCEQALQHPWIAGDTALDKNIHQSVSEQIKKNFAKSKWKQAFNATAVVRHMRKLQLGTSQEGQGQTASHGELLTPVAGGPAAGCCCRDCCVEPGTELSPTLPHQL
Chain of Tyrosine-protein kinase Fer (Homo sapiens) (P16591 whole entry, looked up): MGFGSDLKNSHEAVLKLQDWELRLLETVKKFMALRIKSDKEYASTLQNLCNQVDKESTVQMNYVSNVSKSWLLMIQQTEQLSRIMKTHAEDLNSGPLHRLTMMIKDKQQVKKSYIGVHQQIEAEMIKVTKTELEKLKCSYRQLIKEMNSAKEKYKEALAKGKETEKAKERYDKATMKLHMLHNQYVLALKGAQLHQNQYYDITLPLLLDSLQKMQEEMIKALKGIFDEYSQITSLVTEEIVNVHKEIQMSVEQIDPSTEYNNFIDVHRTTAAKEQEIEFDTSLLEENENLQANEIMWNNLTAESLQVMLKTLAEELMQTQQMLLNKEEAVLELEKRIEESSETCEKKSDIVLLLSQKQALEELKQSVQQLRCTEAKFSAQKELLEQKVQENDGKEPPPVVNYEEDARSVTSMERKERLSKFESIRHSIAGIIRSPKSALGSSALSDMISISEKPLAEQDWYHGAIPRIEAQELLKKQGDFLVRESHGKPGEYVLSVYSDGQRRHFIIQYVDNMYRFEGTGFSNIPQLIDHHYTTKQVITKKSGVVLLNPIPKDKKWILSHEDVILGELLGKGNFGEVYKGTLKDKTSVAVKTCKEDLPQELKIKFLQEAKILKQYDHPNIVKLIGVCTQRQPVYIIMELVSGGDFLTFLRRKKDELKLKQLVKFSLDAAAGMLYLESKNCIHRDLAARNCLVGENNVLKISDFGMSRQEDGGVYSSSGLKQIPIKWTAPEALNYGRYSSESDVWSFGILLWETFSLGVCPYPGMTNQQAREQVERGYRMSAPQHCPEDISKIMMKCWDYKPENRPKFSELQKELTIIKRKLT

As to `CN(C)C/C=C/C(=O)Nc1ccc(C(=O)N2CCCC(Nc3ncc(Cl)c(-c4c[nH]c5ccccc45)n3)C2)cc1` (stereo not drawn), the % of control came out at 82% in experiment [1] and 99% in experiment [2].
In experiment [3], `CNC(=O)Nc1ccc(-c2nc(N3CC4CCC(C3)O4)c3cnn(C4CCC5(CC4)OCCO5)c3n2)cc1` yielded a % of control of 85%.
As to `N#Cc1cccc(-c2c[nH]c3ncnc(N4CCOCC4)c23)c1`, in experiment [4], the % of inhibition is -9%.
Regarding `CC[C@@H]1[C@H](F)C(=O)N[C@@H]1COc1nccc2cc(C(N)=O)c(OC)cc12` [ZIMLOVISERTIB], the % of inhibition in experiment [5] is 11.5%; in experiment [6], -7.8%.
Turning to `O[C@H]1CC[C@H](Nc2ncc3nc(Nc4c(F)cc(F)cc4F)n([C@H]4CCOC4)c3n2)CC1`, the % of control in experiment [7] and in experiment [8] was 100% each time.
